Results from patent publication US7582655B2, “Antineoplastic compounds” (University of Saskatchewan, priority 2005, dated 2009).
Read-outs that look alike come from different tables or passages of the source.

What was measured:
[1] = tested on: COLO 205; assay: Human tumour cell line panel, colon cancer COLO 205; assay type: cell-based; conditions: 48 h; read-out: Colon cancer cells, IC50(μM) COLO 205
Protocol: (§1) In addition, both 5-fluorouracil and melphalan were evaluated towards 57 cell lines. […] MG MID is the average of the potencies of the compound to approximately 50 neoplastic cell lines.

[2] = tested on: HCC 2998; assay: Human tumour cell line panel, colon cancer HCC 2998; assay type: cell-based; conditions: 48 h; read-out: Colon cancer cells, IC50(μM) HCC 2998
Protocol: as §1

[3] = tested on: human periodontal ligament fibroblasts (HPLF); assay: Cytotoxicity CC50, MTT assay, normal HPLF cells
Protocol: (§2) In addition, the compounds were evaluated against human squamous cell carcinomas (HSC-2 and HSC-4) and human promyelocytic leukemia neoplasms (HL-60) and compared with normal cells, i.e. human gingival fibroblasts (HGF), human pulp cells (HPC) and human periodontal ligament fibroblasts (HPLF).
(§3) MTT stands for 3-(4,5-dimethylthiazol-2-yl)-2,5-diphenyltetrazolium bromide). The cells were incubated with varying concentrations of the compounds along with untreated cells for 24 h and the absorbance at 540 nm measured. In the case of the HL-60 assay, the trypan blue exclusion method was followed and cell viability was determined using a haemocytometer. The CC50 values were obtained from dose-response curves (Sakagami, H.; Satoh, K.; Ohata, H.; Takahashi, H.; Yoshida, H.; Iida, M.; Kuribayashi, N.; Sakagami, T.; Momose, K.; Takeda, M. Anticancer Res. 1996, 16, 2635-2644). The general methods used in culturing the cells employed in these cytotoxicity experiments have been described previously (Kawase, M.; Sakagami, H.; Motohashi, N.; Hauer, H.; Chatterjee, S. S.; Spengler, G.; Vigyikanne, A. V.; Molnár, A.; Molnár, J. In Vivo 2005, 19, 705-712; and Takeuchi, R.; Hoshijima, H.; Onuki, N.; Nagasaka, H.; Chowdhury, S. A.; Kawase, M.; Sakagami, H. Anticancer Res. 2005, 25, 4037-4042). In brief, the malignant cells were obtained from Professor Nagumo, Showa University, Japan. The HGF, HPC and HPLF cells were prepared from human periodontal tissue after obtaining informed consent according to the guidelines of Meikai University Ethics Committee, Japan (No. 0206). Since normal cells have a short lifespan, cells at the 3-7 population doubling time were used. With the exception of the HL-60 neoplasm, the cells were cultured in DMEM containing heat-inactivated FBS (10%) at 37° C. in a humidified carbon dioxide atmosphere and subcultured by trypsinization. The HL-60 cells were cultured in a similar fashion except that RPMI 1640 media was employed.

[4] = tested on: SR; assay: Human tumour cell line panel, leukemic SR; assay type: cell-based; conditions: 48 h; read-out: Leukemic cells, IC50(μM) SR
Protocol: as §1

[5] = tested on: human promyelocytic leukemia HL-60; assay: Cytotoxicity CC50, trypan blue exclusion, HL-60
Protocol: as §2, §3

[6] = tested on: human squamous cell carcinomas HSC-2; assay: Cytotoxicity CC50, MTT assay, HSC-2
Protocol: as §2, §3

[7] = tested on: HCT 15; assay: Human tumour cell line panel, colon cancer HCT 15; assay type: cell-based; conditions: 48 h; read-out: Colon cancer cells, IC50(μM) HCT 15
Protocol: as §1

[8] = tested on: human squamous cell carcinomas HSC-4; assay: Cytotoxicity CC50, MTT assay, HSC-4
Protocol: as §2, §3

[9] = tested on: SW 620; assay: Human tumour cell line panel, colon cancer SW 620; assay type: cell-based; conditions: 48 h; read-out: Colon cancer cells, IC50(μM) SW 620
Protocol: as §1

[10] = tested on: K 562; assay: Human tumour cell line panel, leukemic K 562; assay type: cell-based; conditions: 48 h; read-out: Leukemic cells, IC50(μM) K 562
Protocol: as §1

[11] = tested on: HCT 116; assay: Human tumour cell line panel, colon cancer HCT 116; assay type: cell-based; conditions: 48 h; read-out: Colon cancer cells, IC50(μM) HCT 116
Protocol: as §1

[12] = tested on: human gingival fibroblasts (HGF); assay: Cytotoxicity CC50, MTT assay, normal HGF cells
Protocol: as §2, §3

[13] = tested on: human pulp cells (HPC); assay: Cytotoxicity CC50, MTT assay, normal HPC cells
Protocol: as §2, §3

[14] = tested on: KM 12; assay: Human tumour cell line panel, colon cancer KM 12; assay type: cell-based; conditions: read-out: Colon cancer cells, IC50(μM) KM 12
Protocol: as §1

[15] = tested on: HL 60; assay: Human tumour cell line panel, leukemic HL 60; assay type: cell-based; conditions: 48 h; read-out: Leukemic cells, IC50(μM) HL 60
Protocol: as §1

[16] = tested on: human tumour cell lines; assay: Panel of human tumour cell lines, all cell lines (mean graph midpoint); assay type: cell-based; conditions: mean graph midpoint, average of 49 (38-59) human tumour cell lines, 48 h incubation; read-out: All cell lines IC50
Protocol: A number of compounds of the invention were further assessed against numerous human malignant cell lines. An average of 49 cell lines from nine different neoplastic diseases, namely leukemia, melanoma, non-small cell lung, colon, central nervous system, ovarian, renal, prostate, and breast cancers were employed.
as §1

[17] = tested on: RPMI 8226; assay: Human tumour cell line panel, leukemic RPMI 8226; assay type: cell-based; conditions: 48 h; read-out: Leukemic cells, IC50(μM) RPMI 8226
Protocol: as §1

[18] = tested on: HSC-2, HSC-4 and HL-60 malignant cells; assay: Average CC50 for malignant cells
Protocol: as §2, §3

[19] = tested on: murine L-5178 lymphoma cells transfected with the human MDR1 gene; assay: MDR reversal, rhodamine 123 fluorescence activity ratio; conditions: FAR >1 indicates MDR reversal; for FAR value 4 μg/ml: compound 4 μg/ml; for FAR value 40 μg/ml: compound 40 μg/ml
Protocol: A solution of the test compound (2 mg/ml, 10 μl) in dimethylsulfoxide was added to aliquots of the cell suspension and incubated at room temperature for 10 minutes. […] The cells were washed twice and resuspended in PBS (pH 7.4) after which the fluorescence was measured using a Beckton Dickinson FACScan instrument. The fluorescence of the cells was measured in treated MDR cells (F1), untreated MDR cells (F2), treated parental cells (F3) […] were obtained from the following equation, viz (F1/F2)/(F3/F4).

[20] = tested on: HGF, HPC and HPLF cells versus HSC-2, HSC-4 and HL-60 neoplasms; assay: Selectivity index, normal versus malignant cells; assay type: cell-based, human; conditions: average CC50 of HGF, HPLF divided by average CC50 of HSC-2, HSC-4, HL-60
Protocol: as §2, §3

[21] = read-out: CC50(μM) HPLF, normal cells, 24 h, MTT
[22] = read-out: CC50(μM) HL-60, 24 h, trypan blue exclusion, average of two determinations
[23] = read-out: CC50(μM) HSC-2, 24 h, MTT, average of two determinations
[24] = read-out: CC50(μM) HSC-4, 24 h, MTT, average of two determinations
[25] = read-out: CC50(μM) HGF, normal cells, 24 h, MTT
[26] = read-out: CC50(μM) HPC, normal cells, 24 h, MTT
[27] = average CC50 for HSC-2, HSC-4 and HL-60 malignant cells
[28] = Homo sapiens, HL-60, 24 h, read-out: CC50(μM) HL-60
[29] = Homo sapiens, HSC-2, 24 h, read-out: CC50(μM) HSC-2
[30] = Homo sapiens, HSC-4, 24 h, read-out: CC50(μM) HSC-4

## 1-[4-(2-Dimethylaminoethoxy)phenylcarbonyl]-3,5-bis(4-methylphenyl-methylene)-4-piperidone hydrochloride hemihydrate [Compound 3d]
[1]
  IC50: 1.02 µM
[2]
  IC50: 0.229 µM
[3]; [21]
  CC50: 3.4 µM
[4]
  IC50: 0.479 µM
[5]; [22]
  CC50: 0.85 µM
[6]; [23]
  CC50: 1.4 µM
[7]
  IC50: 0.912 µM
[8]; [24]
  CC50: 2.1 µM
[9]
  IC50: 0.562 µM
[10]
  IC50: 1.82 µM
[11]
  IC50: 1.38 µM
[12]; [25]
  CC50: 7.9 µM
[13]; [26]
  CC50: 7.2 µM
[14]
  IC50: 0.776 µM
[15]
  IC50: 1.32 µM
[16]
  IC50: 1150 nM
[17]
  IC50: 0.224 µM
[18]; [27]
  CC50(μM) ave: 1.5 µM

## 3,5-bis(4-Chlorophenylmethylene)-1-[4-(2-dimethylaminoethoxy)phenyl-carbonyl]-4-piperidone hydrochloride hemihydrate [Compound 3b]
[1]
  IC50: 1.7 µM
[2]
  IC50: 0.263 µM
[3]; [21]
  CC50: 4.3 µM
[4]
  IC50: 0.126 µM
[5]; [22]
  CC50: 1.7 µM
[6]; [23]
  CC50: 2.3 µM
[7]
  IC50: 0.295 µM
[8]; [24]
  CC50: 1.8 µM
[9]
  IC50: 0.209 µM
[10]
  IC50: 0.331 µM
[11]
  IC50: 6.03 µM
[12]; [25]
  CC50: 23 µM
[13]; [26]
  CC50: 11 µM
[14]
  IC50: 1.74 µM
[15]
  IC50: 1.41 µM
[16]
  IC50: 1910 nM
[17]
  IC50: 0.098 µM
[18]; [27]
  CC50(μM) ave: 1.9 µM

## O=C1C(=Cc2ccccc2)CNCC1=Cc1ccccc1 [Compound 1a]
[1]
  IC50: 1.55 µM
[2]
  IC50: 2 µM
[3]
  CC50: 24 µM
[4]
  IC50: 0.209 µM
[5]
  CC50: 1.5 µM
[19]
  FAR value 4 μg/ml: 1.58
  FAR value 40 μg/ml: 2.00
[6]
  CC50: 2.2 µM
[7]
  IC50: 0.631 µM
[8]
  CC50: 4.4 µM
[9]
  IC50: 0.575 µM
[10]
  IC50: 0.49 µM
[11]
  IC50: 0.182 µM
[12]
  CC50: 20 µM
[13]
  CC50: 38 µM
[14]; 48 h
  IC50: 0.794 µM
[15]
  IC50: 0.363 µM
[16]
  IC50: 1620 nM
[17]
  IC50: 0.275 µM
[18]
  CC50(μM) ave: 2.7 µM

## Cc1ccc(C=C2CNCC(=Cc3ccc(C)cc3)C2=O)cc1 [Compound 1d, 3,5-bis(4-Methylphenylmethylene)-4-piperidone]
[5]; [28]
  CC50: 4.5 µM
[19]
  FAR value 4 μg/ml: 3.26
  FAR value 40 μg/ml: 4.03
[6]; [29]
  CC50: 3.9 µM
[20]
  SI (selectivity index): 29
[8]; [30]
  CC50: 9.3 µM

## CCN(CC)CCOc1ccc(C(=O)N2CC(=Cc3ccc([N+](=O)[O-])cc3)C(=O)C(=Cc3ccc([N+](=O)[O-])cc3)C2)cc1.Cl [Compound 4c, 1-[4-(2-Diethylaminoethoxy)phenylcarbonyl]-3,5-bis(4-nitrophenylmethylene)-4-piperidone hydrochloride]
[5]; [28]
  CC50: 0.26 µM
[19]
  FAR value 4 μg/ml: 77.5
  FAR value 40 μg/ml: 14.1
[6]; [29]
  CC50: 0.98 µM
[20]
  SI (selectivity index): 6.6
[8]; [30]
  CC50: 1.1 µM

## CC[N+](C)(CC)CCOc1ccc(C(=O)N2CC(=Cc3ccccc3)C(=O)C(=Cc3ccccc3)C2)cc1.[I-] [Compound 7a, 1-[4-(2-Diethylaminoethoxy)phenylcarbonyl]-3,5-bis(phenylmethylene)-4-piperidone methoiodide]
[1]
  IC50: 20.4 µM
[2]
  IC50: 28.2 µM
[3]
  CC50: 79 µM
[4]
  IC50: 38 µM
[5]
  CC50: 82 µM
[19]
  FAR value 4 μg/ml: 1.37
  FAR value 40 μg/ml: 1.05
[6]
  CC50: 130 µM
[7]
  IC50: > 50.1 µM
[8]
  CC50: 82 µM
[9]
  IC50: 30.2 µM
[10]
  IC50: 43.7 µM
[11]
  IC50: > 50.1 µM
[12]
  CC50: 160 µM
[13]
  CC50: 170 µM
[14]; 48 h
  IC50: 43.7 µM
[15]
  IC50: > 50.1 µM
[16]
  IC50: > 41700 nM
[17]
  IC50: 17.4 µM
[18]
  CC50(μM) ave: 98 µM

## CC[N+](C)(CC)CCOc1ccc(C(=O)N2CC(=Cc3ccc(C)cc3)C(=O)C(=Cc3ccc(C)cc3)C2)cc1.[I-] [Compound 7d, 1-[4-(2-Diethylaminoethoxy)phenylcarbonyl]-3,5-bis(4-methylphenylmethylene)-4-piperidone methoiodide]
[1]
  IC50: 8.91 µM
[2]
  IC50: 6.17 µM
[3]
  CC50: 8.3 µM
[4]
  IC50: 22.9 µM
[5]
  CC50: 16 µM
[19]
  FAR value 4 μg/ml: 1.93
  FAR value 40 μg/ml: 114
[6]
  CC50: 17 µM
[7]
  IC50: 9.33 µM
[8]
  CC50: 17 µM
[9]
  IC50: 10.5 µM
[10]
  IC50: 1.35 µM
[11]
  IC50: 14.1 µM
[12]
  CC50: 34 µM
[13]
  CC50: 29 µM
[14]; 48 h
  IC50: 9.33 µM
[15]
  IC50: 11.8 µM
[16]
  IC50: 7760 nM
[17]
  IC50: 1.26 µM
[18]
  CC50(μM) ave: 17 µM
